Values quoted from earlier work as cited in PMC11923824, “Spider-derived peptide LCTx-F2 suppresses ASIC channels by occupying the acidic pocket” (The Journal of Biological Chemistry, 2025).

Key:
[1] = tested on: neuron; settings: no reference given
From the text: (§1) ASIC channels, particularly ASIC1a and ASIC3, are affected by certain cations like Ca^2+ and Zn^2+, which provides valuable insights for the development of novel drugs targeting ASICs. […] Depletion of insulin leads to an increase in ASIC1a channel expression in Chinese hamster ovary cells and neurons.

[2] = tested on: ASICs; settings: no reference given
From the text: as §1

[3] = tested on: humans; settings: no reference given
From the text: as §1

[4] = biological target: T1, rASIC3 channel (Rattus norvegicus, UniProt O35240)
T1 construct: expressed in transfected cells; host or cells: human embryonic kidney 293 cells
T1 sequence (O35240 1-533): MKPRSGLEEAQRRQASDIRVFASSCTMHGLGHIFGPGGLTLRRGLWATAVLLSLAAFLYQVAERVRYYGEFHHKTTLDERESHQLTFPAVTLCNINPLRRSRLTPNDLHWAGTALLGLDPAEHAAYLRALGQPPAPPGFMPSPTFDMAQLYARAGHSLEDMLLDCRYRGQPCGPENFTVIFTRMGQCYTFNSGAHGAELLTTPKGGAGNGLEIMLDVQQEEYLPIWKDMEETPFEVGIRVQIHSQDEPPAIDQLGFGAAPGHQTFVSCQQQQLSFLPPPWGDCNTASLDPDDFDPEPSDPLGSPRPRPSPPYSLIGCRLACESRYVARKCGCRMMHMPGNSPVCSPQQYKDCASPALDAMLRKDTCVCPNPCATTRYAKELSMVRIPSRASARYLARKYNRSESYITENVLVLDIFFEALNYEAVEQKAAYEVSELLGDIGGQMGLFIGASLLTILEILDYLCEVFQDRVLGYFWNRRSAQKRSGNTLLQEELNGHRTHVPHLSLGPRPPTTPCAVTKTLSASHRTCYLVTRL
From the text: Venom serves as a crucial weapon for animals in hunting prey and defending against enemies. Spider venom contains a variety of peptide toxins, some of which induce pain by targeting different ion channels ([29], [30], [31]), whereas others have analgesic properties and block the pain pathway ([32], [33], [34]). […] Derived from the spider Lycosa singoriensis, LCTx-F2 enhances ... || ASICs play a crucial role in pain perception among mammals ([39], [40]). Some animal toxins that are involved in prey capture and defense mechanisms act on ASICs ([26], [41]). For instance, the venom from Micrurus tener tener causes intense and persistent pain by enhancing the activation of ASICs through the MitTx toxin ([27]). ASICs are also considered important targets for pain relief, and certain chemicals that block their activity have shown strong analgesic effects in tests with living organisms ([42], [43]).

[5] = tested on: human ASIC3 channel
From the text: ASICs play a crucial role in pain perception among mammals ([39], [40]). Some animal toxins that are involved in prey capture and defense mechanisms act on ASICs ([26], [41]). For instance, the venom from Micrurus tener tener causes intense and persistent pain by enhancing the activation of ASICs through the MitTx toxin ([27]). ASICs are also considered important targets for pain relief, and certain chemicals that block their activity have shown strong analgesic effects in tests with living organisms ([42], [43]).

[6] = tested on: ASIC3 channel; settings: nonproton ligand
From the text: as §1

[7] = tested on: ASICs in dorsal root ganglion neurons; settings: no reference given
From the text: as §1

[8] = tested on: rASIC2a channel
From the text: Venom serves as a crucial weapon for animals in hunting prey and defending against enemies. Spider venom contains a variety of peptide toxins, some of which induce pain by targeting different ion channels ([29], [30], [31]), whereas others have analgesic properties and block the pain pathway ([32], [33], [34]). […] Derived from the spider Lycosa singoriensis, LCTx-F2 enhances ...

[9] = tested on: ischemic stroke
From the text: as §1

[10] = tested on: ASIC1a channel
From the text: ASIC channels, particularly ASIC1a and ASIC3, are affected by certain cations like Ca^2+ and Zn^2+, which provides valuable insights for the development of novel drugs targeting ASICs. […] Depletion of insulin leads to an increase in ASIC1a channel expression in Chinese hamster ovary cells and neurons. […] Spider venom contains a variety of peptide toxins, some of which induce pain by targeting different ion channels ([29], [30], [31]), whereas others have analgesic properties and block the pain pathway ([32], [33], [34]). […] Derived from the spider Lycosa singoriensis, LCTx-F2 enhances ...

[11] = tested on: hASIC1a channel; settings: interacts with helix α5 of the thumb domain
[12] = tested on: ASIC1a channel in Xenopus oocytes; settings: no reference given
From the text: as §1

Molecule: N=C(N)NC(=O)c1nc(Cl)c(N)nc1N [Amiloride]
- protection against acidosis-induced neuron damage [1]: provides protection against acidosis-induced neuron damage
- effect on ASICs, amiloride [2]: can suppress most ASICs
- analgesic effect in humans [3]: has shown analgesic effects in humans

Molecule: APETx2
- effect on rASIC3 (in words) [4]: inhibit both rASIC3 and hASIC3 channels
- inhibition of hASIC3 (in words) [5]: inhibit both rASIC3 and hASIC3 channels
- IC50 ([5]; read-out: IC50 against human ASIC3 channel): 175 nM

Molecule: Cc1nc(NC(=N)N)nc2ccccc12 [2-guanidine-4-methylquinazoline]
- activation of ASIC3 [6]: activated

Molecule: nerve growth factor: proinflammatory mediator
- effect on ASIC expression [7]: increase the expression of ASICs

Molecule: PcTx1
- effect on rASIC2a (in words) [8]: not the rASIC2a or rASIC3 channels
- neuroprotection in ischemic stroke [9]: exhibits neuroprotection
- effect on ASIC1a (in words) [10]: selectively inhibit the ASIC1a channel
- site of action on ASIC1a [10]: inserts into the acidic pocket of ASIC1a channels

Molecule: mambalgin-1: snake toxin mambalgin-1 (LKCYQHGKVVTCHRDMKFCYHNTGMPFRNLKLILQGCSSSCSETENNKCCSTDRCNK; UniProt P0DKR6 22-78, looked up)
- effect on proton sensitivity of hASIC1a [11]: reduces the proton sensitivity

Molecule: bradykinin: proinflammatory mediator (RPPGFSPFR; Bradykinin; UniProt P01042 381-389, looked up)
- effect on ASIC expression [7]: increase the expression of ASICs

B1: matriptase: protease cleaving ASIC1a (protein, UniProt Q9Y5Y6 1-855, looked up)
Suppressor of tumorigenicity …: MGSDRARKGGGGPKDFGAGLKYNSRHEKVNGLEEGVEFLPVNNVKKVEKHGPGRWVVLAAVLIGLLLVLLGIGFLVWHLQYRDVRVQKVFNGYMRITNENFVDAYENSNSTEFVSLASKVKDALKLLYSGVPFLGPYHKESAVTAFSEGSVIAYYWSEFSIPQHLVEEAERVMAEERVVMLPPRARSLKSFVVTSVVAFPTDSKTVQRTQDNSCSFGLHARGVELMRFTTPGFPDSPYPAHARCQWALRGDADSVLSLTFRSFDLASCDERGSDLVTVYNTLSPMEPHALVQLCGTYPPSYNLTFHSSQNVLLITLITNTERRHPGFEATFFQLPRMSSCGGRLRKAQGTFNSPYYPGHYPPNIDCTWNIEVPNNQHVKVRFKFFYLLEPGVPAGTCPKDYVEINGEKYCGERSQFVVTSNSNKITVRFHSDQSYTDTGFLAEYLSYDSSDPCPGQFTCRTGRCIRKELRCDGWADCTDHSDELNCSCDAGHQFTCKNKFCKPLFWVCDSVNDCGDNSDEQGCSCPAQTFRCSNGKCLSKSQQCNGKDDCGDGSDEASCPKVNVVTCTKHTYRCLNGLCLSKGNPECDGKEDCSDGSDEKDCDCGLRSFTRQARVVGGTDADEGEWPWQVSLHALGQGHICGASLISPNWLVSAAHCYIDDRGFRYSDPTQWTAFLGLHDQSQRSAPGVQERRLKRIISHPFFNDFTFDYDIALLELEKPAEYSSMVRPICLPDASHVFPAGKAIWVTGWGHTQYGGTGALILQKGEIRVINQTTCENLLPQQITPRMMCVGFLSGGVDSCQGDSGGPLSSVEADGRIFQAGVVSWGDGCAQRNKPGVYTRLPLFRDWIKENTGV
- effect of cleavage on ASIC1a current [12]: reduces its current
